For orientation: IC50 means the concentration at which inhibition is half-maximal. Higher therefore signals a need for much substance. One may read the inhibition as the percentage by which the read-out fell short of the control.

One assay addresses T1, Geranylgeranyl transferase type I (Homo sapiens, UniProt P49354+P53609). Description: Inhibition of Geranylgeranyl transferase type I. The class given is protein-complex assay.
`CCCCOc1ccc(S(=O)(=O)N(CCc2ccc(F)cc2)C(CC(=O)O)c2cnc[nH]2)cc1` (centres undefined) yielded an IC50 of 1070 nM.
Same read-out and setting: the figure for `O=C(O)CC(c1cnc[nH]1)N(CCc1cccs1)Cc1ccc(-c2ccccc2)cc1` (centres undefined) is 1070 nM; for `O=C(O)CC(c1cnc[nH]1)N(CCCCc1ccccc1)Cc1ccc(Oc2ccccc2)cc1` (centres undefined) it is 860 nM.
Molecule `O=C(O)CC(c1cnc[nH]1)N(CCc1ccc(F)cc1)Cc1ccc(Oc2ccccc2)cc1` (centres undefined) displayed an IC50 of 90 nM.
Still for that read-out and setting: then `COC(=O)C(CC(C)C)NC(=O)c1ccc(NCC(N)CS)cc1-c1cccc2ccccc12` (centres undefined), with 150 nM.
Still for that read-out and setting: then `Brc1ccc(CCN(Cc2ccc(Oc3ccccc3)cc2)Cc2c[nH]cn2)cc1`, with 256 nM; and `Fc1ccc(CCN(Cc2ccc(Oc3ccccc3)cc2)Cc2c[nH]cn2)cc1`, with 460 nM.
Same read-out and setting: then `O=C(O)CC(c1cnc[nH]1)N(CCc1ccc(F)cc1)Cc1ccc(-c2ccccc2)cc1` (centres undefined), with 1100 nM.

For another assay, the target named is T1, Geranylgeranyl transferase type I. Description: Percent inhibition of Geranylgeranyl transferase type I at 10 uM. It counts as protein-complex assay.
In the case of `CCCCOc1ccc(S(=O)(=O)N(CC2CCCCC2)C(CC(=O)O)c2c[nH]cn2)cc1` (centres undefined), the inhibition is 30%.
Same read-out and setting: then `O=C(O)CC(NC1CCN(Cc2ccccc2)CC1)c1c[nH]cn1` (centres undefined), with 21%; and `O=C(O)CC(c1c[nH]cn1)N(Cc1nc[nH]n1)CC1CCCCC1` (centres undefined), with 8%; and `Cc1ccccc1CN(Cc1ccc(C(C)(C)C)cc1)Cc1c[nH]cn1`, with 24%.
Molecule `O=C(O)CC(c1c[nH]cn1)N(CCc1ccc(F)cc1)Cc1c[nH]c(-c2ccccc2)n1` (centres undefined) displayed an inhibition of 35%.
`CCCCCCCN(Cc1ccc(Oc2ccccc2)cc1)Cc1c[nH]cn1` registered an inhibition of 40%.
On the same count and under the same terms, the figure for `c1cncc(CN(Cc2c[nH]cn2)Cc2ccco2)c1` is 23%; for `O=C(O)CC(c1c[nH]cn1)N(CCCCCCO)Cc1c[nH]c(-c2ccccc2)n1` (centres undefined) it is 0%.
With `Brc1ccc(CCN(Cc2ccc3ccccc3c2)Cc2c[nH]cn2)cc1`, the inhibition is 69%.
On the same count and under the same terms, then `O=C(O)CC(c1c[nH]cn1)N(CCc1cccs1)Cc1ccccn1` (centres undefined), with 11%.
For the molecule `O=C(O)CC(c1c[nH]cn1)N(CCCc1ccccc1)Cc1cccc2ccccc12` (centres undefined), the inhibition worked out at 74%.
The same measure, in the same setting: then `O=C(O)CC(c1c[nH]cn1)N(CCc1ccc(F)cc1)S(=O)(=O)c1cc(Cl)sc1Cl` (centres undefined), with 53%; and `O=C(O)CC(c1c[nH]cn1)N(CC(c1ccccc1)c1ccccc1)C1CCN(Cc2ccccc2)C1` (centres undefined), with 18%; and `Brc1ccc(CCN(Cc2ccc(-c3ccccc3)cc2)Cc2c[nH]cn2)cc1`, with 77%.
The same measure, in the same setting: then `CCCCCCN(Cc1nc[nH]n1)C(CC(=O)O)c1c[nH]cn1` (centres undefined), with 3%; and `O=C(O)CC(c1c[nH]cn1)N(CCCCCCO)CC(c1ccccc1)c1ccccc1` (centres undefined), with 0%; and `Brc1ccc(CCN(Cc2ccc(Oc3ccccc3)cc2)Cc2c[nH]cn2)cc1`, with 88%.
Same read-out and setting: then `Fc1ccc(CCN(Cc2ccc(Oc3ccccc3)cc2)Cc2c[nH]cn2)cc1`, with 78%.
`CCCCOc1ccc(S(=O)(=O)N(CCc2ccc(F)cc2)C(CC(=O)O)c2c[nH]cn2)cc1` (centres undefined) showed an inhibition of 78%.
On the same count and under the same terms, then `O=C(O)CC(c1c[nH]cn1)N(CCc1cccs1)Cc1nc[nH]n1` (centres undefined), with 16%.
The same measure, in the same setting: then `O=C(O)CC(c1c[nH]cn1)N(Cc1nc[nH]n1)C1CCN(Cc2ccccc2)CC1` (centres undefined), with 11%.
Turning to `CC(C)CCN(Cc1ccccn1)C(CC(=O)O)c1c[nH]cn1` (centres undefined), the inhibition came to 10%.
Same read-out and setting: the figure for `Cc1ccc(CCN(Cc2ccc(Oc3ccccc3)cc2)Cc2c[nH]cn2)cc1` is 72%.
Same read-out and setting: the figure for `O=C(O)CC(c1c[nH]cn1)N(CC1CCCCC1)S(=O)(=O)c1cc(Cl)sc1Cl` (centres undefined) is 21%.

The target in the next assay is Protein farnesyltransferase (Homo sapiens, UniProt P49354+P49356). As to the kind of experiment: Inhibition of Farnesyltransferase. It counts as protein-complex assay.
In the case of `Brc1ccc(CCN(Cc2ccc(Oc3ccccc3)cc2)Cc2c[nH]cn2)cc1`, the IC50 is > 10 µM.
As for `Fc1ccc(CCN(Cc2ccc(Oc3ccccc3)cc2)Cc2c[nH]cn2)cc1`, the 50% inhibitory concentration (IC50) is > 10 µM.

Source of the values: ChEMBL document CHEMBL1141912, “Novel beta-(imidazol-4-yl)-beta-amino acids: solid-phase synthesis and study of their inhibitory activity against geranylgeranyl protein transferase type I” (Bioorg Med Chem Lett, 2005).
